Publication PMC7037732, “Synthesis of Combretastatin A-4 and 3′-Aminocombretastatin A-4 derivatives with Aminoacid Containing Pendants and Study of their Interaction with Tubulin and as Downregulators of the VEGF, hTERT and c-Myc Gene Expression” (Molecules, 2020)

Tests used:
A-549 cells = test: Cell cycle distribution by flow cytometry; format: cell-based, human; conditions: A-549, 24 h
How it was run: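 A-549 cells were harvested, fixed in cold 70% ethanol (30 min, −20 °C), then stained with 50 µg/mL propidium iodide plus 100 µg/mL RNase A in PBS for 20 min at room temperature in the dark. Flow cytometry used 488 nm excitation and 620 nm emission, giving the percentage of cells in G2/M.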

[1] = tested on: HT-29 (human colon adenocarcinoma); test: Inhibition of cell proliferation (MTT), HT-29; format: cell-based; conditions: 48 h of treatment (footnote), average ±SD of three experiments
hTERT gene = hTERT gene expression by RT-qPCR in HT-29 cells; format: cell-based, human
Protocol: The effect on the expression of VEGF, hTERT and c-Myc genes has been studied for CA-4 and its derivatives that show selectivity indexes higher than 0.9 on the HT-29 cell line. The studied derivatives, together with the concentrations to which they have been tested, are CA-4 (15 μM); 4.1 (Gly, 5 μM); 4.5 (L-Pro, 25 μM); 4.9 (L-Met, 25 μM); 6.2 (D-Leu, 25 μM); 6.3 (D-Phe, 25 μM); 6.4 (D-Pro, 25 μM) and 6.5 (D-Ser, 10 μM). The expression of the genes was determined by RT-qPCR methodology, as described in the Materials and Methods section.
As regards AmCA-4 derivatives, the effect on the expression of the VEGF, hTERT and c-Myc genes has been studied on those that show IC50 in the low nanomolar range on the HT-29 cell line and/or on compounds whose selectivity indexes with respect to this cell line are higher than 1. The studied compounds, together with the concentrations to which they have been tested, are: CA-4 (15 μM), AmCA-4 (15 nM), 7.1 (7 nM), 7.2 (1.5 nM), 7.3 (4 nM), 7.4 (15 nM), 7.5 (2 nM), 7.7 (7 nM), 7.8 (15 nM), 7.9 (30 nM), 8.1 (7 nM), 8.2 (3 nM), 8.3 (10 nM), 8.4 (1.5 nM), 8.5 (4 nM), 8.7 (7 nM), 8.8 (3 nM) and 8.9 (4 nM).
HT-29 cells at 70–80% confluence were collected, and 1.5 × 10^5 cells were placed in a six-well plate in 1.5 mL of the medium. After 24 h, cells were incubated with the corresponding compounds for 48 h. Cells were collected, and the total cellular RNA from the HT-29 cells was isolated using an Ambion RNA Extraction Kit, according to the manufacturer’s instructions. The cDNA was synthesized by MMLV-RT with […] of extracted RNA and oligo(dT)15, according to the manufacturer’s instructions. Genes were amplified by a thermal cycler and StepOnePlus™ TaqMan® probes. TaqMan® Gene Expression Master Mix Fast, containing the appropriate buffer for the amplification conditions, dNTPs, thermostable DNA polymerase enzyme and a passive reference probe, was used. To amplify each of the genes, the predesigned primers sold by Life Technologies TaqMan® Gene Expression Assays Hs99999903-m1 (β-actin), Hs00900055-m1 (VEGF), Hs00972646-m1 (hTERT) and Hs00153408-m1 (c-Myc) were used.

[2] = tested on: HEK-293 (human embryonic kidney cells); test: Inhibition of cell proliferation (MTT), nontumor HEK-293; format: cell-based; conditions: 48 h of treatment (footnote), average ±SD of three experiments
[3] = tested on: MCF-7 (breast adenocarcinoma); test: Inhibition of cell proliferation (MTT), MCF-7; format: cell-based, human; conditions: 48 h of treatment (footnote), average ±SD of three experiments
[4] = Homo sapiens, HT-29, 48 h, Table 2
[5] = Homo sapiens, HEK293, 48 h, Table 2
[6] = Homo sapiens, MCF7, 48 h, Table 2
[7] = concentration per compound as in Tables 6 and 7
[8] = Homo sapiens, HT-29, 48 h, Table 1
[9] = Homo sapiens, HT-29, 48 h, 25 μM, control 100
[10] = Homo sapiens, HEK293, 48 h, Table 1
[11] = Homo sapiens, MCF7, 48 h, Table 1

Row | Structure (SMILES) | G0/G1 (A-549 cells; 2 µM) [%] | G2/M (A-549 cells; 2 µM) [%] | S (A-549 cells; 2 µM) [%] | IC50 [1, 4] [nM] | IC50 [2, 5] [nM] | IC50 [3, 6] [nM] | G0/G1 (A-549 cells; 75 μM) [%] | G2/M (A-549 cells; 75 μM) [%] | S (A-549 cells; 75 μM) [%] | Effect on the cell cycle (A-549 cells; [7]) | IC50 [1, 8] [nM] | IC50 [2, 10] [nM] | IC50 [3, 11] [nM] | further results
1 | COc1ccc(/C=C\c2cc(OC)c(OC)c(OC)c2)cc1NC(=O)CN [Compound 8.1] | 32 ± 5 | 46 ± 4 | 22 ± 2 | 10 ± 2 | 10 ± 2 | 9 ± 4 | – | – | – | – | – | – | – | mrna remaining at 0.007 µM (hTERT gene; Homo sapiens, HT-29, 48 h, 7 nM, control 100): > 100%
2 | COc1ccc(/C=C\c2cc(OC)c(OC)c(OC)c2)cc1OCC(=O)N1CCC[C@@H]1C(=O)O [Compound 6.4] | – | – | – | – | – | – | 71 | 15 | 14 | do not exert any significant effect on the cells | 50000 ± 11000 | 53000 ± 9000 | 55000 ± 13000 | mrna remaining at 25 µM (hTERT gene; [9]): 51%
3 | COc1ccc(/C=C\c2cc(OC)c(OC)c(OC)c2)cc1OCC(=O)N[C@H](CC(C)C)C(=O)O [Compound 6.2] | – | – | – | – | – | – | 85 ± 1 | 12 ± 1 | 3 ± 2 | do not exert any significant effect on the cells | 47000 ± 9000 | 49000 ± 12000 | 25000 ± 2000 | mrna remaining at 25 µM (hTERT gene; [9]): 87%
4 | COc1ccc(/C=C\c2cc(OC)c(OC)c(OC)c2)cc1OCC(=O)N[C@H](C(=O)O)C(C)C [Compound 4.2] | – | – | – | – | – | – | – | – | – | – | – | – | – | G0/G1 (A-549 cells; 50 μM): 17 ± 2%; G2/M (A-549 cells; 50 μM): 67 ± 4%; S (A-549 cells; 50 μM): 16 ± 3%; cells accumulated in the G2/M phase (A-549 cells; concentration per compound as in Tables 6 and 7, control 14%): 50–70%; IC50 ([1]; Homo sapiens, HT-29, Table 1): 12000 ± 5000 nM; mrna remaining at 25 µM (hTERT gene; Homo sapiens; HT-29, 48 h, 25 μM; control 100): 82%; IC50 ([2]; Homo sapiens, HEK293, Table 1): 4000 ± 1000 nM; IC50 ([3]; Homo sapiens, MCF7, Table 1): 7000 ± 1000 nM
5 | COc1ccc(/C=C\c2cc(OC)c(OC)c(OC)c2)cc1OCC(=O)N[C@H](CO)C(=O)O [Compound 6.5] | – | – | – | – | – | – | 64 | 18 | 18 | do not exert any significant effect on the cells | 13000 ± 1000 | 14000 ± 4000 | 12000 ± 1000 | mrna remaining at 10 µM (hTERT gene; Homo sapiens, HT-29, 48 h, 10 μM, control 100): 77%
6 | COc1ccc(/C=C\c2cc(OC)c(OC)c(OC)c2)cc1NC(=O)[C@H](Cc1ccccc1)NC(=O)OCC1c2ccccc2-c2ccccc21 [Compound 7.5] | 34 ± 2 | 46 ± 3 | 20 ± 1 | 8 ± 3 | 2.3 ± 2 | 14 ± 4 | – | – | – | – | – | – | – | mrna remaining at 0.002 µM (hTERT gene; Homo sapiens, HT-29, 48 h, 2 nM, control 100): < 70%
7 | COc1ccc(/C=C\c2cc(OC)c(OC)c(OC)c2)cc1NC(=O)[C@H](C)N [Compound 8.2] | – | – | – | < 5 | < 5 | < 5 | – | – | – | – | – | – | – | G0/G1 (A-549 cells; 3 µM): 28 ± 1%; G2/M (A-549 cells; 3 µM): 58 ± 5%; S (A-549 cells; 3 µM): 14 ± 4%; IC50 ([1]; Table 2): 3 ± 0.3 nM; mrna remaining at 0.003 µM (hTERT gene; Homo sapiens, HT-29, 48 h, 3 nM, control 100): 74%; IC50 ([2]; Table 2): 4 ± 0.1 nM; IC50 ([3]; Table 2): 4.8 ± 0.5 nM
8 | COc1ccc(/C=C\c2cc(OC)c(OC)c(OC)c2)cc1NC(=O)[C@H](CCSC)NC(=O)OCC1c2ccccc2-c2ccccc21 [Compound 7.9] | 72 ± 2 | 10 ± 3 | 18 ± 1 | 33 ± 20 | 8 ± 4 | 5.1 ± 0.3 | – | – | – | do not accumulate a high percentage of cells in phase G2/M | – | – | – | mrna remaining at 0.03 µM (hTERT gene; Homo sapiens, HT-29, 48 h, 30 nM, control 100): 77%
